Earlier results in paper PMC3780409 (Methods in molecular biology (Clifton, N.J.), 2011).
Entries after “also recorded” stand apart in the source; their conditions may differ.

What was measured:
PAR1 [1] = settings: cited from earlier work
PAR1 [2] = settings: cited from earlier work; remark: listed apart in the source
PAR1 [3] = settings: cited from earlier work; remark: listed apart in the source
PAR1 [4] = settings: sepsis, SIRS, DIC, mice; cited from earlier work
endothelial cells = settings: cited from earlier work
[5] = test system: thromboxane, ADP, collagen, or GPIb/IX/V receptors; settings: specificity; cited from earlier work
PAR1 [6] = settings: cited from earlier work; remark: listed apart in the source
PAR1 [7] = settings: human platelets, 5 μM for 1 min; cited from earlier work
[8] = test system: PAR2, PAR4, CXCR1, CXCR2, S1P1, S1P3, or CCR5 receptors; settings: recombinantly transfected HEK293 cells; cited from earlier work

## N-pal-RCLSSSAVANRS-NH2 [Pepducin P1pal-12]
PAR1 [1]; precontracted rat aortic rings
  relaxation induced by TFLLRN or P1pal-19: decreased relaxation
PAR1 [1]; rat aortic rings
  Outcome (thrombin-induced relaxation): Decreased thrombin-induced relaxation in rat aortic rings
PAR1 [2]; human platelets, collagen
  p38 MAPK activation: blocked p38 MAPK activation
PAR1 [2]; human platelets
  collagen-induced platelet aggregation: Inhibition of collagen-induced platelet aggregation
PAR1 [2]; human whole blood, arterial flow conditions
  propagation of platelet–platelet thrombi: significantly reduced
PAR1 [3]; platelets
  thrombin plus collagen-induced calcium signal: significantly decreased; also recorded: Decreased collagen-induced calcium signal
PAR1 [3]; thrombin plus collagen
  prothrombinase activity: decreased the prothrombinase activity to levels induced by collagen alone
PAR1 [4]
  Outcome: Reduced organ damage and inflammatory mediators, inhibited neutrophil migration
Endothelial cells
  responses to IL8, SDF-1α, S1P, thromboxane, MCP-1, RANTES: no effect
[5]
  aggregation of platelets induced by agonists for the thromboxane, ADP, collagen, or GPIb/IX/V receptors: lack of an effect
PAR1 [6]
  Outcome (thrombin generation): Delayed thrombin generation
PAR1 [7]
  aggregation in response to 3 nM thrombin: complete blockade
  decrease in SFLLRN (PAR1 agonist)-induced aggregation: 75–95%
[8]
  migration to ligands for PAR2, PAR4, CXCR1, CXCR2, S1P1, S1P3, or CCR5 receptors: no effect
